Results reported in patent US8637525B2, “Compounds for the reduction of beta-amyloid production” (Bristol-Myers Squibb Company, priority 2009, dated 2014).
Counter-ions that a name gives are not always drawn. Like-named read-outs stand apart in the source and are kept apart here.

Test system: Aβ1-42 production
Experiment: Cellular assay for inhibition of Aβ1-42 production (H4 APP751 SWE clone 8.20)
Type: cell-based
Conditions: H4 APP751 SWE clone 8.20 cells, 19 h incubation
In short: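 Viewlux signal read-out; IC50 by curve fit. Sandwich: 565 anti-Aβ42 neoepitope (Wallac conjugate, 0.8 ng/well) + 26D6 anti-N-terminus (APC, 75 ng/well), in Tris-HCl 40 mM pH 7.4/0.2% BSA, o/n 4 °C. Cells exposed to compound 19 h, 37 °C, 5% CO2.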

[1] = 19 h, class symbols, read-out: Activity Rating (Aβ42 cellular IC50)
[2] = 19 h, read-out: Activity Rating (Aβ42 cellular IC50), numeric value
[3] = class symbols, read-out: Activity Rating (Aβ42 cellular IC50)

CNc1nc(Nc2ccc(-n3cnc(Cl)c3)c(OC)c2)nc2c1COCC2c1ccc(F)cc1 (stereo not shown) [Example 60B, N2-(4-(4-chloro-1H-imidazol-1-yl)-3-methoxyphenyl)-8-(4-fluorophenyl)-N4-methyl-7,8-dihydro-5H-pyrano[4,3-d]pyrimidine-2,4-diamine]
IC50 [1]: 10 to 100 nM

CNc1nc(Nc2cccc(OC)c2)nc2c1CCC2c1ccccc1 (stereo not shown) [Example 217, N2-(3-methoxyphenyl)-N4-methyl-7-phenyl-6,7-dihydro-5H-cyclopenta[d]pyrimidine-2,4-diamine]
IC50 [1]: > 1000 nM

CCN1Cc2c(nc(Nc3ccc(-n4cnc(Cl)c4)c(OC)c3)nc2N(C)CC)C(c2ccc(F)cc2)C1 (stereo not shown) [Example 158, N2-(4-(4-chloro-1H-imidazol-1-yl)-3-methoxyphenyl)-N4,6-diethyl-8-(4-fluorophenyl)-N4-methyl-5,6,7,8-tetrahydropyrido[4,3-d]pyrimidine-2,4-diamine]
IC50 [1]: 10 to 100 nM

CNc1nc(Nc2ccc(-n3cnc(C)n3)c(OC)c2)nc2c1CC[C@@]2(C)c1ccc(F)cc1 (single isomer, unassigned) [Example 265A]
IC50 [1]: 10 to 100 nM

CCNc1nc(Nc2ccc(-n3cnc(Cl)c3)c(OC)c2)nc2c1COCC2c1ccc(F)c(F)c1 (racemic) [Example 113, N2-(4-(4-chloro-1H-imidazol-1-yl)-3-methoxyphenyl)-8-(3,4-difluorophenyl)-N4-ethyl-7,8-dihydro-5H-pyrano[4,3-d]pyrimidine-2,4-diamine, TFA]
IC50 [2]: 5.7 nM

COc1cc(Nc2nc3c(c(N4CCC(F)C4)n2)COCC3c2ccc(F)cc2)ccc1-n1cnc(Cl)c1 (stereo in doubt) [Example 57A, N-(4-(4-chloro-1H-imidazol-1-yl)-3-methoxyphenyl)-8-(4-fluorophenyl)-4-((R)-3-fluoropyrrolidin-1-yl)-7,8-dihydro-5H-pyrano[4,3-d]pyrimidin-2-amine]
IC50 [2]: 14 nM

CCNc1nc(Nc2ccc(-n3cnc(Cl)c3)c(OC)c2)nc2c1CN(CC(F)(F)F)CC2c1ccccc1 (stereo not shown) [Example 196]
IC50 [3]: 10 to 100 nM

COc1cc(Nc2nc3c(c(N4CCC(F)C4)n2)CCOC3c2ccc(F)cc2)ccc1-n1cnc(Cl)c1 (stereo in doubt) [Example 91A, N-(4-(4-chloro-1H-imidazol-1-yl)-3-methoxyphenyl)-8-(4-fluorophenyl)-4-((S)-3-fluoropyrrolidin-1-yl)-6,8-dihydro-5H-pyrano[3,4-d]pyrimidin-2-amine]
IC50 [3]: 1.5 to 9.9 nM

COc1cc(Nc2nc3c(c(N4CC(C)(OC)C4)n2)CCC3c2ccc(F)cc2)ccc1-n1cnc(C)n1 (stereo not shown) [Example 192B, 7-(4-fluorophenyl)-4-(3-methoxy-3-methylazetidin-1-yl)-N-(3-methoxy-4-(3-methyl-1H-1,2,4-triazol-1-yl)phenyl)-6,7-dihydro-5H-cyclopenta[d]pyrimidin-2-amine]
IC50 (read-out: Activity Rating (Aβ42 cellular IC50), numeric value): 16 nM

CNc1nc(Nc2ccc(-n3cnc(Cl)c3)c(OC)c2)nc2c1COCC2c1ccc(F)c(F)c1 (racemic) [Example 115, N2-(4-(4-chloro-1H-imidazol-1-yl)-3-methoxyphenyl)-8-(3,4-difluorophenyl)-N4-methyl-7,8-dihydro-5H-pyrano[4,3-d]pyrimidine-2,4-diamine, TFA]
IC50 [1]: 1.5 to 9.9 nM

CCNc1nc(Nc2ccc(-n3cnc(C)n3)c(OC)c2)nc2c1COCC2c1ccc(F)cc1 (racemic) [Example 55, N4-ethyl-8-(4-fluorophenyl)-N2-(3-methoxy-4-(3-methyl-1H-1,2,4-triazol-1-yl)phenyl)-7,8-dihydro-5H-pyrano[4,3-d]pyrimidine-2,4-diamine]
IC50 [1]: 10 to 100 nM

COc1cc(Nc2nc3c(c(N4CCC(N(C)C)C4)n2)CCC3c2ccc(F)cc2)ccc1-n1cnc(Cl)c1 (single isomer, unassigned) [Example 29A, N-(4-(4-chloro-1H-imidazol-1-yl)-3-methoxyphenyl)-4-(3-(dimethylamino)pyrrolidin-1-yl)-7-(4-fluorophenyl)-6,7-dihydro-5H-cyclopenta[d]pyrimidin-2-amine]
IC50 [1]: 10 to 100 nM

CCNc1nc(Nc2ccc(-n3cnc(Cl)c3)c(OC)c2)nc2c1COCC2c1cc(F)cc(F)c1 (racemic) [Example 112, N2-(4-(4-chloro-1H-imidazol-1-yl)-3-methoxyphenyl)-8-(3,5-difluorophenyl)-N4-ethyl-7,8-dihydro-5H-pyrano[4,3-d]pyrimidine-2,4-diamine, TFA]
IC50 [1]: 1.5 to 9.9 nM

CNc1nc(Nc2ccc(-n3cnc(C)n3)c(OC)c2)nc2c1CCC2c1ccccc1 (stereo not shown) [Example 1, N2-(3-methoxy-4-(3-methyl-1H-1,2,4-triazol-1-yl)phenyl)-N4-methyl-7-phenyl-6,7-dihydro-5H-cyclopenta[d]pyrimidine-2,4-diamine]
IC50 [1]: 1.5 to 9.9 nM

COc1cc(Nc2nc3c(c(N4CC[C@@H](F)C4)n2)COC3c2ccc(F)cc2)ccc1-n1cnc(Cl)c1 (single isomer, unassigned) [Example 83A]
IC50 [3]: 1.5 to 9.9 nM

C=CCC1(c2ccccc2)CCc2c(NCC)nc(Nc3ccc(-n4cnc(Cl)c4)c(OC)c3)nc21 (stereo not shown) [Example 111, N2-(4-(4-chloro-1H-imidazol-1-yl)-3-methoxyphenyl)-N4-ethyl-7-allyl-7-phenyl-6,7-dihydro-5H-cyclopenta[d]pyrimidine-2,4-diamine]
IC50 [2]: 35 nM

Cc1ncnn1-c1ccc(Nc2nc3c(c(N4CC(F)(F)C4)n2)CCC3c2ccc(F)cc2)cc1F (racemic) [Example 16, 4-(3,3-difluoroazetidin-1-yl)-N-(3-fluoro-4-(5-methyl-1H-1,2,4-triazol-1-yl)phenyl)-7-(4-fluorophenyl)-6,7-dihydro-5H-cyclopenta[d]pyrimidin-2-amine]
IC50 [1]: 10 to 100 nM

CNc1nc(Nc2ccc(-n3ncnc3C)c(F)c2)nc2c1CN(S(=O)(=O)C1CC1)CC2c1ccccc1 (stereo not shown) [Example 142, 6-(cyclopropylsulfonyl)-N2-(3-fluoro-4-(5-methyl-1H-1,2,4-triazol-1-yl)phenyl)-N4-methyl-8-phenyl-5,6,7,8-tetrahydropyrido[4,3-d]pyrimidine-2,4-diamine]
IC50 [1]: 10 to 100 nM

CCOC1CN(c2nc(Nc3ccc(-n4cnc(Cl)c4)c(OC)c3)nc3c2CCC3c2ccc(F)cc2)C1 (stereo not shown) [Example 187, N-(4-(4-chloro-1H-imidazol-1-yl)-3-methoxyphenyl)-4-(3-ethoxyazetidin-1-yl)-7-(4-fluorophenyl)-6,7-dihydro-5H-cyclopenta[d]pyrimidin-2-amine]
IC50 [1]: 10 to 100 nM

COCC(Nc1nc(Nc2ccc(-n3cnc(Cl)c3)c(OC)c2)nc2c1CCC2c1ccc(F)cc1)C1CC1 (single isomer, unassigned) [Example 45A, N2-(4-(4-chloro-1H-imidazol-1-yl)-3-methoxyphenyl)-N4-(1-cyclopropyl-2-methoxyethyl)-7-(4-fluorophenyl)-6,7-dihydro-5H-cyclopenta[d]pyrimidine-2,4-diamine]
IC50 [3]: 10 to 100 nM

CCNc1nc(Nc2ccc(-n3cnc(C)n3)c(OC)c2)nc2c1COCC2c1ccc(F)cc1 (stereo not shown) [Example 55B, N4-ethyl-8-(4-fluorophenyl)-N2-(3-methoxy-4-(3-methyl-1H-1,2,4-triazol-1-yl)phenyl)-7,8-dihydro-5H-pyrano[4,3-d]pyrimidine-2,4-diamine]
IC50 [1]: 10 to 100 nM

COc1cc(Nc2nc3c(c(N4CCC(F)(F)C4)n2)CCC3c2cc(F)c(F)c(F)c2)ccc1-n1cnc(Cl)c1 (single isomer, unassigned) [Example 107B, N-(4-(4-chloro-1H-imidazol-1-yl)-3-methoxyphenyl)-4-(3,3-difluoropyrrolidin-1-yl)-7-(3,4,5-trifluorophenyl)-6,7-dihydro-5H-cyclopenta[d]pyrimidin-2-amine]
IC50 [3]: 100 to 1000 nM

COc1cc(Nc2nc3c(c(N(C)C)n2)CCC3c2ccc(OC(F)(F)F)cc2)ccc1-n1cnc(Cl)c1 (single isomer, unassigned) [Example 100A, N^2-(4-(4-chloro-1H-imidazol-1-yl)-3-methoxyphenyl)-N^4,N^4-dimethyl-7-(4-(trifluoromethoxy)phenyl)-6,7-dihydro-5H-cyclopenta[d]pyrimidine-2,4-diamine]
IC50 [2]: 4.7 nM

COc1cc(Nc2nc3c(c(N4CCC(F)C4)n2)CCOC3c2ccc(F)cc2)ccc1-n1cnc(Cl)c1 (stereo in doubt) [Example 90B, N-(4-(4-chloro-1H-imidazol-1-yl)-3-methoxyphenyl)-8-(4-fluorophenyl)-4-((R)-3-fluoropyrrolidin-1-yl)-6,8-dihydro-5H-pyrano[3,4-d]pyrimidin-2-amine]
IC50 [2]: 270 nM

COc1cc(Nc2nc3c(c(N4CC(OC)C4)n2)CCC3c2ccccc2)ccc1-n1cnc(Cl)c1 (single isomer, unassigned) [Example 183B, N-(4-(4-chloro-1H-imidazol-1-yl)-3-methoxyphenyl)-4-(3-methoxyazetidin-1-yl)-7-phenyl-6,7-dihydro-5H-cyclopenta[d]pyrimidin-2-amine]
IC50 [3]: 10 to 100 nM

COc1cc(Nc2nc3c(c(N(C)C)n2)COCC3c2ccccc2)ccc1-n1cnc(Cl)c1 (single isomer, unassigned) [Example 53A, N^2-(4-(4-Chloro-1H-imidazol-1-yl)-3-methoxyphenyl)-N^4,N^4-dimethyl-8-phenyl-7,8-dihydro-5H-pyrano[4,3-d]pyrimidine-2,4-diamine]
IC50 [3]: 1.5 to 9.9 nM

CNc1nc(Nc2ccc(-n3cnc(Cl)c3)c(OC)c2)nc2c1CCCC2c1ccccc1 (stereo not shown) [Example 203A, N2-(4-(4-chloro-1H-imidazol-1-yl)-3-methoxyphenyl)-N4-methyl-8-phenyl-5,6,7,8-tetrahydroquinazoline-2,4-diamine]
IC50 [3]: 1.5 to 9.9 nM

CNc1nc(Nc2ccc(-n3ncnc3C)c(F)c2)nc2c1CN(C)CC2c1ccccc1 (stereo not shown) [Example 150, N2-(3-fluoro-4-(5-methyl-1H-1,2,4-triazol-1-yl)phenyl)-N4,6-dimethyl-8-phenyl-5,6,7,8-tetrahydropyrido[4,3-d]pyrimidine-2,4-diamine]
IC50 [1]: 10 to 100 nM
